The results in this text go back to patent US20160256449A1, “H3 RECEPTOR ANTAGONIST FOR USE IN THE TREATMENT OF ALZHEIMER'S DISEASE” (SANOFI, priority 2013, published 2016).

For test [1], the system named is patients with mild to moderate Alzheimer's disease. The test is described as follows: clinical study, ADAS-Cog 11 items. Type of test: in vivo, human. The following applies: mITT. From the text:
“ADAS-Cog” as used herein, refers to a sensitive and standardized neuropsychological test battery to assess cognitive dysfunction characteristics of patients with AD including memory and orientation, language (aphasia), motor skills (praxis), attention and concentration. The original, standard version consists of 11 items. The total score of these 11-item scores ranges from 0-70 with higher scores indicating greater cognitive impairment. More recently, two additional tasks have been added in a new 13-item version of the scale proposed for patients with mild disease: Delayed Word Recall and Concentration/Distractibility.
A randomized, double-blind, parallel-group, placebo-controlled clinical trial was performed to study the effect on cognitive performance, safety, and tolerability of 2-(cyclohexylmethyl)-N-{2-[(2S)-1-methylpyrrolidin-2-yl]ethyl}-1,2,3,4-tetrahydroisoquinoline-7-sulfonamide difumarate monohydrate as adjunct treatment to donepezil. […]
Patients were randomized to receive 0.5 mg, 2 mg, or 5 mg of 2-(cyclohexylmethyl)-N-{2-[(2S)-1-methylpyrrolidin-2-yl]ethyl}-1,2,3,4-tetrahydroisoquinoline-7-sulfonamide difumarate monohydrate (measured in base form), or matching placebo once a day, with donepezil (5 mg or 10 mg in the form the patient took prior to enrollment), for 24 weeks, with or without food. […]

The test system is the same in test [2]. The test is described as follows: clinical study, AES-I apathy score. The test is classed as in vivo, human. The following applies: 5 mg/day with donepezil. How it is done:
“AES-I” as used herein, refers to the Apathy Evaluation Scale for Informant which assess global measure of apathy. Scores range from 18 (best possible) to 72 (worst possible).
A randomized, double-blind, parallel-group, placebo-controlled clinical trial was performed to study the effect on cognitive performance, safety, and tolerability of 2-(cyclohexylmethyl)-N-{2-[(2S)-1-methylpyrrolidin-2-yl]ethyl}-1,2,3,4-tetrahydroisoquinoline-7-sulfonamide difumarate monohydrate as adjunct treatment to donepezil.
More specifically, patients with mild to moderate Alzheimer's disease on stable donepezil therapy were randomized to receive doses of 0.5 mg, 2 mg, or 5 mg/day of 2-(cyclohexylmethyl)-N-{2-[(2S)-1-methylpyrrolidin-2-yl]ethyl}-1,2,3,4-tetrahydroisoquinoline-7-sulfonamide difumarate monohydrate or placebo for 24 weeks, with a 10 week follow-up period.
Patients were randomized to receive 0.5 mg, 2 mg, or 5 mg of 2-(cyclohexylmethyl)-N-{2-[(2S)-1-methylpyrrolidin-2-yl]ethyl}-1,2,3,4-tetrahydroisoquinoline-7-sulfonamide difumarate monohydrate (measured in base form), or matching placebo once a day, with donepezil (5 mg or 10 mg in the form the patient took prior to enrollment), for 24 weeks, with or without food.
Change from baseline to Week 12 and 24 in the Apathy Evaluation Scale for Informant (AES-I) score; and […]

Another test deals with CD1 male mice. The test is described as follows: object recognition test in normal mice. Type of test: in vivo. From the text: FIG. 1 illustrates the results of the effect of a co-treatment with 2-(cyclohexyl methyl)-N-{2-[(2S)-1-methyl pyrrolidin-2-yl]ethyl}-1,2,3,4-tetrahydroisoquinoline-7-sulfonamide and donepezil on recognition memory in normal mice at various delays using the object recognition task.
The results of this study are depicted in FIG. 1.

Take `CN1CCC[C@H]1CCNS(=O)(=O)c1ccc2c(c1)CN(CC1CCCCC1)CC2` [API, 2-(cyclohexylmethyl)-N-{2-[(2S)-1-methylpyrrolidin-2-yl]ethyl}-1,2,3,4-tetrahydroisoquinoline-7-sulfonamide difumarate monohydrate]: the “ADAS-Cog score compared to placebo” value in test [1] (5 mg/day with donepezil, at follow-up) was “statistically significant improvement”. The “mean differences in the ADAS-Cog change score” value in test [1] (after 24 weeks of treatment, with donepezil) is given as “not significantly different”. Besides, the “AES-I change from baseline vs placebo” value in test [2] (after 12 weeks, mITT) was “significant difference”. The “AES-I difference vs placebo” value in test [2] (at 24 weeks and follow-up) is on record as “no longer significant”. The “procognitive effect of co-administration in object recognition test” value with CD1 male mice (3 mg/kg co-administered with 3 mg/kg donepezil hydrochloride, 48 hours post administration) was “significant procognitive effect”. For the same compound, the “memory in object recognition test” value with CD1 male mice (3 mg/kg oral, individually, 24 hours after administration) is “enhanced the memory”. In addition, in the test with CD1 male mice (3 mg/kg oral, individually, after 48 hours), the “procognitive effect in object recognition test” value is recorded as “lack of procognitive effect”.
